Measured values: PubChem BioAssay AID651581 (Sanford-Burnham Center for Chemical Genomics, 2012)
Calls of active or inactive are those of the source. No rule for the calls is given here.

Legend:
[1] = target: Endothelial PAS domain-containing protein 1 (Homo sapiens) (UniProt Q99814); assay: HIF-2a and HIF-1a reporter inhibition panel, dose response, selectivity assay for HIF-2a inhibitor project, cell-based, luminescence (AID 651581)
[2] = target: Hypoxia-inducible factor 1-alpha (Homo sapiens) (UniProt Q16665); assay: as above; details: HIF-1a
Sequence of Hypoxia-inducible factor 1-alpha (Homo sapiens) (Q16665 whole entry, looked up): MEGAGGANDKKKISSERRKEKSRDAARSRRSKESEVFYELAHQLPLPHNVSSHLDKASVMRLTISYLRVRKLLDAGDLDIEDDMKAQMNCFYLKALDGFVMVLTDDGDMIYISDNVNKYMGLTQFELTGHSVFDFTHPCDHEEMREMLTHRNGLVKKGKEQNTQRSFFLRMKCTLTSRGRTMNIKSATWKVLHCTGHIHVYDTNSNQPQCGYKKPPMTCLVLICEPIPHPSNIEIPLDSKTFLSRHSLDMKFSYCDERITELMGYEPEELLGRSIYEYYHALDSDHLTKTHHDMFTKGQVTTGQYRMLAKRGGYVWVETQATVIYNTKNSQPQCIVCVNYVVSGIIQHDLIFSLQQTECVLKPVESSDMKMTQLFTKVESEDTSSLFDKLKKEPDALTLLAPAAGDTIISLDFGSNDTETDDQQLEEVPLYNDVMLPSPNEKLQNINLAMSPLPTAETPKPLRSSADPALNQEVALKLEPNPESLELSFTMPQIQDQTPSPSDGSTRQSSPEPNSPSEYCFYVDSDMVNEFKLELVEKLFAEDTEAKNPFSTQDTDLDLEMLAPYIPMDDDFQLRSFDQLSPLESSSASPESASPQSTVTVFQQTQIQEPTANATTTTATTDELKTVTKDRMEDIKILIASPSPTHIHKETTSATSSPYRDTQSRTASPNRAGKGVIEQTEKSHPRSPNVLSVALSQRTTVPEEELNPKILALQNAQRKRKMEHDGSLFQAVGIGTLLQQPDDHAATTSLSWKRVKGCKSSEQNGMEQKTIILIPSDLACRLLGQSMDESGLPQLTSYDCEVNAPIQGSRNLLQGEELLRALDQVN

Row | SMILES | IC50 ([1]; HIF-2a PANC, mean of runs) | IC50 ([1]; HIF-2a PANC, run 1) [µM] | IC50 ([1]; HIF-2a PANC, run 2) [µM] | IC50 ([1]; HIF-2a, mean of runs) | IC50 ([1]; HIF-2a, run 1) [µM] | IC50 ([1]; HIF-2a, run 2) [µM] | IC50 ([2]; mean of runs) | IC50 ([2]; run 1) [µM] | IC50 ([2]; run 2) [µM]
1 | O=C(Nc1ccccc1)c1nnsc1S(=O)(=O)c1ccc(Cl)cc1 | inactive | 44.3 | 80.5 | 7.71 µM | 7.38 | 8.04 | 28.6 µM | 27 | 30.2
2 | CCOc1ccc(C(=O)Nc2cccc(C(=O)O)c2C)cc1Cl | 28.2 µM | 25 | 31.5 | inactive | 13.3 | 16.6 |  | > 30 | > 99
3 | O=C(CCCc1nc(-c2ccccc2Cl)no1)NC1CCCC1 | 0.975 µM | 1.08 | 0.867 | 1.04 µM | 0.993 | 1.08 | inactive | 1.26 | 1.83
4 | C/C(=N\OCc1cccc(C(=O)O)c1)c1ccc(Cl)cc1 | > 99 µM (inactive) | > 99 | > 99 |  | < 10 | 5.87 |  | > 99 | > 99
5 | Cc1ccc(S(=O)(=O)Nc2cccc3cccnc23)c([N+](=O)[O-])c1 | > 99 µM (inactive) | > 99 | > 99 | 3.76 µM | 3.87 | 3.66 |  | > 99 | > 99
6 | O=C(Nc1ccc(NC(=O)c2cccs2)cc1)c1ccc2c(c1)OCCO2 | 1.93 µM | 2.06 | 1.79 |  | 22 | > 99 | > 99 µM (inactive) | > 99 | > 99
7 | Cc1cc(C)c(C)c(S(=O)(=O)ON2C(=O)c3ccccc3C2=O)c1C | inactive | 50.9 | 21.9 | 8.77 µM | 8.96 | 8.59 |  | > 99 | > 99
8 | COc1ccc(OCc2cccc(C(=O)Nn3cc([N+](=O)[O-])cn3)c2)cc1 |  | < 30 | 13.4 | inactive | 11.3 | 9.04 |  | 32.1 | < 30
9 | Cc1cccc(NC(=S)NNc2ncc(C(F)(F)F)cc2Cl)c1 | 2.01 µM | 2.31 | 1.71 | 8.98 µM | 8.85 | 9.11 | 30.1 µM | 33.1 | 27.1
10 | NC(=O)COC(=O)CCCSc1nc2ccccc2s1 |  | > 99 | 81.1 | 8.53 µM | 8.5 | 8.56 | inactive | 5.5 | 12.1
11 | Cc1nc(SCc2ccc(C(=O)O)cc2)nc2c1CCCC2 | inactive | 20.8 | 23.6 | 4.53 µM | 4.31 | 4.75 | inactive | 12.3 | 7.67
12 | CCOc1ccc2nc(SCc3ccc(CC(=O)O)cc3)c(C#N)cc2c1 | 7.1 µM | 10.9 | 3.27 | 6.7 µM | 5.75 | 7.65 | 24.6 µM | 35.4 | 13.8
13 | COc1cc(/C=C/[N+](=O)[O-])ccc1O | > 99 µM (inactive) | > 99 | > 99 | inactive | 11.7 | 10.3 | inactive | 25.2 | 28.3
14 | Cc1csc(NC(=O)CCc2c(C)nc3cc(-c4ccc(Cl)cc4)nn3c2C)n1 |  | < 0.19 | 0.308 |  | < 1 | 0.344 |  | 0.486 | < 10
15 | COC(=O)CCCNC(=O)CCc1nnc(-c2ccc(-c3ccccc3)cc2)o1 |  | > 99 | 21.3 | 2.82 µM | 3.04 | 2.6 |  | > 99 | > 99
16 | CCOC(=O)C1CCN(C(=O)Nc2ccc3snnc3c2)CC1 | inactive | 19.4 | 56.8 | inactive | 8.45 | 14.8 |  | > 99 | > 99
17 | CC(=O)Nc1ccc(NC(=O)c2ccc(-c3ccnn3C)c3ccoc23)cc1 | 1.85 µM | 2.03 | 1.67 | 0.858 µM | 0.938 | 0.777 |  | 3.89 | > 99
18 | COc1ccc(C(=O)/C=C/C(=O)N(CC(=O)NCCC(C)C)Cc2cccs2)c(O)c1 |  | > 99 | 63.8 | 3.88 µM | 4.21 | 3.55 | 12.8 µM | 9.47 | 16
19 | Cc1ccc(S(=O)(=O)Nc2cccc3cccnc23)cc1 | > 99 µM (inactive) | > 99 | > 99 | 1.12 µM | 1.15 | 1.09 |  | > 99 | > 99
